# Assay results from patent US7794760B2, “Herbal mixture extract of Pleurotus eryngii, Acanthopanacis Cortex and Notoginseng Radix and a composition comprising the same for prevention and treatment of periodontitis” (Oscotec Inc., priority 2005, dated 2010).
# Tested on: OPG (osteoprotegerin)
# Test: OPG (osteoprotegerin) expression in MG-63 cells, OPG ELISA of supernatant
# Format: cell-based, human
# Conditions: positive control, 20 mM
# Procedure: The following three types of cells were used to investigate the effect of the herbal mixture extract or each independent herbal extract of the present invention on the proliferation of osteoblasts. A human osteosarcoma derived cell line MG-63 (ATCC No, CRL-1427) and a mouse muscle derived cell line C2C12 (ATCC No. CRL-1772) were distributed from American Type Culture Collection (ATCC, USA). The cells were cultured in DMEM (Gibco, BRL, USA) supplemented with 10% FBS (fetal bovine serum) in a 37° C. 5% CO2 incubator with 100% humidity.
# MG-63 cell culture medium having approximately at the density of 10^6 cells/20 ml was removed from 100 mm cell culture dish. The dish was washed with 5 ml of DPBS (Dulbeco's modified phosphate buffered saline). The buffer was removed and 0.5 ml of trypsin-EDTA was spread on the culture dish, which stood in a CO2 incubator for one minute to take the cells off. The cells were put in 5 ml of DMEM supplemented with 10% FBS and mixed well. […] The numbers of cells were counted by haemacytometer and then distributed into a96-well plate at the concentration of 10^4 cells/well. […]
# To increase reliability of the test results, positive control was treated with 20 mM CaCl2 to induce 2˜5 fold higher expression of OPG than in negative control. […] OPG ELISA kit (OCT) was used and optical density was measured at 450 nm. […]
compound,measurement,value
[Ca+2].[Cl-].[Cl-] [CaCl2],expression of OPG versus negative control,2˜5 fold
